Results as given in US9739791B2, “Methods for predicting and treating myocardial damage” (THE CLEVELAND CLINIC FOUNDATION, priority 2010, dated 2017).

System: infarct size after ischemia reperfusion (LAD ligation)
Assay: LAD ligation/reperfusion, infarct size as percent area at risk after CoQ10 pretreatment
Type: in vivo
Details: WT mice; CoQ10 ip 1 mg/kg/day for 3 days prior to ischemia reperfusion; compared to WT controls; p=0.15
Description: FIG. 4 is a plot comparing infarct size as a percentage of AAR in WT and ApoAI-null mice given saline or Coenzyme Q10 daily for 3 days prior to ischemia induced by 30 minutes of LAD ligation and 3 hours of reperfusion (data represent mean±SD; n=4-6 per group; *p<0.0001 compared to strain-matched NT control).
All animal protocols were approved by the Animal Research Committee, and all animals were housed in the Association for Assessment and Accreditation of Laboratory Animal Care International-approved animal facility of the Cleveland Clinic. Anterior wall MI (AMT) was performed as recently described (Askari, A. T. et al., J. Exp. Med. 197:615-624, 2003). Briefly, AMI was induced in eight 20- to 25-g male littermate wild-type (C57BL/6J), ApoA1 heterozygote (ApoA1^+/−) or knockout (ApoA1^−/−) mice by ligation of the LAD 7-0 Prolene. Blanching and dysfunction of the anterior wall verified LAD ligation. After 30 minutes of LAD ligation, microsurgical scissors were used to cut the knot in the ligature at the level of the myocardium, and animals subsequently underwent reperfusion for 3 hours. […] Animals were kept on ventilator for the entire 3 hours of reperfusion and subsequently analyzed for area at risk and infarct size using 1% solution of 2,3,5-triphenyltetrazolium chloride (TTC) at 37° C. […]

With COC1=C(OC)C(=O)C(C/C=C(\C)CC/C=C(\C)CC/C=C(\C)CC/C=C(\C)CC/C=C(\C)CC/C=C(\C)CC/C=C(\C)CC/C=C(\C)CC/C=C(\C)CCC=C(C)C)=C(C)C1=O [CoQ10, Coenzyme Q10] as the compound, how does the “decrease in IS/% AAR” value read?
The value was “non-significant trend”.
